Assay results published in patent US20260001874A1 (priority 2022, published 2026).

Legend:
[1] = tested on: Shiga toxin Stx-2; assay type: cell-based, E. coli; conditions: read-out: EC50 in vitro Stx2
[2] = tested on: Shiga toxin Stx-1; assay type: cell-based, E. coli; conditions: read-out: EC50 in vitro Stx1
[3] = in vitro; conditions: rabbit
[4] = tested on: VacV-ANCHOR; assay: microbe, parasite or virus in culture; assay type: cell-based, cowpox virus; conditions: Orthopoxvirus vaccinia, HeLa, read-out: EC50 in vitro VACV
[5] = in vitro; conditions: human
[6] = tested on: myxomatosis-derived virus MYXV-T1-ANCHOR; assay: organism not typed; assay type: cell-based; conditions: RK-13, read-out: EC50 in vitro MYXV
[7] = tested on: RK13 cells; conditions: rabbit
[8] = Pharmacokinetics in Lipiodol/castor oil (formulation B) or DMSO/Lipiodol/castor oil (formulation C), oral or subcutaneous; conditions: 33 mg/kg oral or subcutaneous, Lipiodol/castor oil 30%/70%
[9] = mouse, in vivo
[10] = Incubation with hepatic mouse microsomes, LC-MS-MS; conditions: 5 μM, 45 minutes, 37° C.
[11] = tested on: HeLa cells; conditions: human

SMILES	EC50 [1] [nM]	EC50 [2] [nM]	CC50 [3] [nM]	EC50 [4] [nM]	CC50 [5] [nM]	EC50 [6] [nM]	also measured
Cc1nc(-c2ccc(C3N(C)c4ccc(F)cc4C(=O)N3c3cccc(O)c3O)s2)cs1 (stereo not shown) [Compound E]	35	32	1300	4.8	8500	11.5	–
Cc1nc(-c2ccc(C3N(C)c4ccc(F)cc4C(=O)N3c3ccccc3)s2)cs1 (stereo not shown) [Compound A]	60	52	–	37.8	> 50000	74.5	CC50 [7]: 3350 nM
Cc1nc(-c2ccc(C3N(C)c4ccc(F)cc4C(=O)N3c3c(O)cccc3O)s2)cs1 (stereo not shown) [Compound 1, 3-(2,6-dihydroxyphenyl)-6-fluoro-1-methyl-2-(5-(2-methylthiazol-4-yl)thiophen-2-yl)-2,3-dihydroquinazolin-4(1H)-one]	17	16	18900	0.78	57700	6	pharmacokinetic properties (plasma exposure) compared with the other molecules tested [8]: best pharmacokinetic properties of all of the molecules tested; concentration in brain ([9]; female, BALB/c): 1700 nM; concentration in colon ([9]; female, BALB/c): 800 nM; concentration in kidneys ([9]; female, BALB/c): 400 nM; concentration in liver ([9]; female, BALB/c): 600 nM; concentration in lungs ([9]; female, BALB/c): 500 nM; concentration in plasma ([9]; female, BALB/c): 700 nM; concentration in small intestine ([9]; female, BALB/c): 2100 nM; concentration in brain (metabolite section) ([9]; female, BALB/c, sc, 33 mg/kg): 1500 nM; concentration in colon (metabolite section) ([9]; female, BALB/c, sc, 33 mg/kg): < 200 nM; concentration in kidney (metabolite section) ([9]; female, BALB/c, sc, 33 mg/kg): 500 nM; concentration in liver (metabolite section) ([9]; female, BALB/c, sc, 33 mg/kg): 1000 nM; concentration in lungs (metabolite section) ([9]; female, BALB/c, sc, 33 mg/kg): < 200 nM; metabolism by hepatic microsomes in the presence of NADPH [10]: slowed metabolism relative to the other compounds
Cc1nc(-c2ccc(C3N(C)c4ccc(F)cc4C(=O)N3c3ccccc3N)s2)cs1 (stereo not shown) [Compound J]	27	21	–	1	> 50000	1.44	CC50 [7]: 7460 nM
Cc1nc(-c2ccc(C3N(C)c4ccc(F)cc4C(=O)N3c3ccc(O)cc3)s2)cs1 (stereo not shown) [Compound D]	–	483	–	628	–	5800	CC50 [7]: 12900 nM; CC50 [11]: 20400 nM
Cc1nc(-c2ccc(C3N(C)c4ccc(F)cc4C(=O)N3c3cc(O)cc(O)c3)s2)cs1 (stereo not shown) [Compound I]	–	> 30000	20100	7300	25900	9750	–
CN1c2ccc(F)cc2C(=O)N(c2c(O)cccc2O)C1c1ccc(-c2csc(CO)n2)s1 (stereo not shown) [metabolite]	–	–	–	–	–	–	presence in kidney, liver, colon, lungs and brain after treatment with compound 1 ([9]; sc, 33 mg/kg): identified in vivo
Cc1nc(-c2ccc(C3N(C)c4ccc(F)cc4C(=O)N3c3cccc(O)c3)s2)cs1 (stereo not shown) [Compound C]	71	62	3510	32.2	29200	85.8	–
Cc1nc(-c2ccc(C3N(C)c4ccc(F)cc4C(=O)N3c3ccc(O)cc3O)s2)cs1 (stereo not shown) [Compound F]	–	1500	–	27.3	3600	–	–
Cc1nc(-c2ccc(C3N(C)c4ccc(F)cc4C(=O)N3c3ccc(O)c(O)c3)s2)cs1 (stereo not shown) [Compound H]	–	2500	–	–	–	–	–
Cc1nc(-c2ccc(C3N(C)c4ccc(F)cc4C(=O)N3c3ccccc3O)s2)cs1 (stereo not shown) [Compound B]	22	25	14000	3.6	39900	19	–
Cc1nc(-c2ccc(C3N(C)c4ccc(F)cc4C(=O)N3c3cc(O)ccc3O)s2)cs1 (stereo not shown) [Compound G]	–	642	12600	19	36300	237	–
